In US12497408B2, “Tetracyclic compounds and methods for the treatment of Zika virus infection” (priority 2021, dated 2025):

What follows are molecules tested on ZIKV (assay: ZIKV reporter virus-based antiviral screening on Huh7 cells). Settings: Huh7 cells infected with recombinant luciferase reporter ZIKV (MOI about 0.1), 48 hrs, luciferase signal; read-out: EC50.
Format: cell-based, Zika virus
Procedure, shortened: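 Huh7 cells in 2% FBS assay medium infected at MOI about 0.1 with Renilla or Nano luciferase ZIKV premixed with nine-point compound dilutions, 48 hrs at 37° C. Luciferase signal normalized to DMSO controls as 100%; viability optionally by CellTiter-Glo with Rlu virus.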
Work on `CC[C@H](C)[C@H](NC(=O)OC)C(=O)N1C[C@@H](C)C[C@H]1c1nc(Cl)c(-c2cc3c4c(c2)OCc2cc(-c5[nH]c([C@@H]6C[C@H](C)CN6C(=O)[C@@H](NC(=O)OC)[C@@H](C)CC)nc5C(C)C)cc(c2-4)OC3)[nH]1` [Compound 73, methyl ((2S,3S)-1-((2S,4S)-2-(5-(7-(4-chloro-2-((2S,4S)-1-((methoxycarbonyl)-1-isoleucyl)-4-methylpyrrolidin-2-yl)-1H-imidazol-5-yl)-5,10-dihydrochromeno[5,4,3-cde]chromen-2-yl)-4-isopropyl-1H-imidazol-2-yl)-4-methylpyrrolidin-1-yl)-3-methyl-1-oxopentan-2-yl)carbamate] yielded an EC50 of 3.2 nM.

Same assay, conditions: Zika virus, Huh-7, 48 h, Huh7 cells infected with recombinant luciferase reporter ZIKV (MOI about 0.1), luciferase signal
For `C=C(C)c1nc([C@@H]2C[C@H](C)CN2C(=O)[C@@H](NC(=O)OC)C(C)C)[nH]c1-c1cc2c3c(c1)OCc1cc(-c4[nH]c([C@@H]5C[C@H](C)CN5C(=O)[C@@H](NC(=O)OC)C(C)C)nc4C(=C)C)cc(c1-3)OC2` [Compound 71, dimethyl ((2S,2′S)-((3S,3′S,5S,5′S)-((5,10-dihydrochromeno[5,4,3-cde]chromene-2,7-diyl)bis(4-(prop-1-en-2-yl)-1H-imidazole-5,2-diyl))bis(3-methylpyrrolidine-5,1-diyl))bis(3-methyl-1-oxobutane-1,2-diyl))dicarbamate], the EC50 was 36.4 nM. `COC(=O)N[C@H](C(=O)N1C[C@@H](C)C[C@H]1c1nc(C(C)C)c(-c2cc3c4c(c2)OCc2cc(-c5[nH]c([C@@H]6C[C@H](C)CN6C(=O)[C@@H](NC(=O)OC)C(C)C)nc5C(C)C)cc(c2-4)OC3)[nH]1)C(C)C` [Compound 72, dimethyl ((2S,2′S)-((3S,3′S,5S,5′S)-((5,10-dihydrochromeno[5,4,3-cde]chromene-2,7-diyl)bis(4-isopropyl-1H-imidazole-5,2-diyl))bis(3-methylpyrrolidine-5,1-diyl))bis(3-methyl-1-oxobutane-1,2-diyl))dicarbamate] showed an EC50 of 11.8 nM. With `COC(=O)N[C@H](C(=O)N1[C@@H](C)CC[C@H]1c1nc(Cl)c(-c2cc3c4c(c2)OCc2cc(-c5[nH]c([C@@H]6CC[C@H](C)N6C(=O)[C@@H](NC(=O)OC)C(C)C)nc5Cl)cc(c2-4)OC3)[nH]1)C(C)C` [Compound 74, dimethyl ((2S,2′S)-((2S,2′S, 5S,5′S)-((5,10-dihydrochromeno[5,4,3-cde]chromene-2,7-diyl)bis(4-chloro-1H-imidazole-5,2-diyl))bis(2-methylpyrrolidine-5,1-diyl))bis(3-methyl-1-oxobutane-1,2-diyl))dicarbamate] the EC50 was 2 nM. `COC(=O)N[C@H](C(=O)N1[C@@H](C)CC[C@H]1c1ncc(-c2cc3c4c(c2)OCc2cc(-c5[nH]c([C@@H]6CC[C@H](C)N6C(=O)[C@@H](NC(=O)OC)C(C)C)nc5Cl)cc(c2-4)OC3)[nH]1)C(C)C` [Compound 75, methyl ((S)-1-((2S,5S)-2-(4-chloro-5-(7-(2-((2S,5S)-1-((methoxycarbonyl)-L-valyl)-5-methylpyrrolidin-2-yl)-1H-imidazol-5-yl)-5,10-dihydrochromeno[5,4,3-cde]chromen-2-yl)-1H-imidazol-2-yl)-5-methylpyrrolidin-1-yl)-3-methyl-1-oxobutan-2-yl)carbamate] was tested, and the EC50 was 9.6 nM. Work on `COC(=O)N[C@H](C(=O)N1CCC[C@H]1c1nc(C(C)(C)C)c(-c2cc3c4c(c2)OCc2cc(-c5[nH]c([C@@H]6CCCN6C(=O)[C@@H](NC(=O)OC)C(C)C)nc5C(C)(C)C)cc(c2-4)OC3)[nH]1)C(C)C` [Compound 76, Dimethyl ((2S,2′S)-((2S,2′S)-((5,10-dihydrochromeno[5,4,3-cde]chromene-2,7-diyl)bis(4-(tert-butyl)-1H-imidazole-5,2-diyl))bis(pyrrolidine-2,1-diyl))bis(3-methyl-1-oxobutane-1,2-diyl))dicarbamate] yielded an EC50 of 496 nM. Work on `CC[C@H](C)[C@H](NC(=O)OC)C(=O)N1CC2(CC2)C[C@@H]1c1nc(Cl)c(-c2cc3c4c(c2)OCc2cc(-c5[nH]c([C@H]6CC7(CC7)CN6C(=O)[C@@H](NC(=O)OC)[C@@H](C)CC)nc5C(C)C)cc(c2-4)OC3)[nH]1` [Compound 78, methyl ((2S,3S)-1-((R)-6-(5-(7-(4-chloro-2-((R)-5-((methoxycarbonyl)-L-isoleucyl)-5-azaspiro[2.4]heptan-6-yl)-1H-imidazol-5-yl)-5,10-dihydrochromeno[5,4,3-cde]chromen-2-yl)-4-isopropyl-1H-imidazol-2-yl)-5-azaspiro[2.4]heptan-5-yl)-3-methyl-1-oxopentan-2-yl)carbamate] yielded an EC50 of over 1000 nM. Work on `CCCc1nc([C@@H]2CCCN2C(=O)[C@@H](NC(=O)OC)C(C)C)[nH]c1-c1cc2c3c(c1)OCc1cc(-c4[nH]c([C@@H]5CCCN5C(=O)[C@@H](NC(=O)OC)C(C)C)nc4CCC)cc(c1-3)OC2` [Compound 79, dimethyl ((2S,2′S)-((2S,2′S)-((5,10-dihydrochromeno[5,4,3-cde]chromene-2,7-diyl)bis(4-propyl-1H-imidazole-5,2-diyl))bis(pyrrolidine-2,1-diyl))bis(3-methyl-1-oxobutane-1,2-diyl))dicarbamate] yielded an EC50 of 200 nM. `COC(=O)N[C@H](C(=O)N1C[C@@H](C)C[C@H]1c1nc(Cl)c(-c2cc3c4c(c2)OCc2cc(-c5[nH]c([C@@H]6C[C@H](C)CN6C(=O)[C@@H](NC(=O)OC)C(C)C)nc5C(C)C)cc(c2-4)OC3)[nH]1)C(C)C` [Compound 80, methyl ((S)-1-((2S,4S)-2-(5-(7-(4-chloro-2-((2S,4S)-1-((methoxycarbonyl)-L-valyl)-4-methylpyrrolidin-2-yl)-1H-imidazol-5-yl)-5,10-dihydrochromeno[5,4,3-cde]chromen-2-yl)-4-isopropyl-1H-imidazol-2-yl)-4-methylpyrrolidin-1-yl)-3-methyl-1-oxobutan-2-yl)carbamate] was tested, and the EC50 was 5.7 nM. `COC(=O)N[C@@H](C(=O)N1CC2(CC2)C[C@H]1c1nc(Cl)c(-c2cc3c4c(c2)OCc2cc(-c5[nH]c([C@@H]6CC7(CC7)CN6C(=O)[C@H](NC(=O)OC)C(C)C)nc5C(C)C)cc(c2-4)OC3)[nH]1)C(C)C` [Compound 81, methyl ((R)-1-((S)-6-(5-(7-(4-chloro-2-((S)-5-((methoxycarbonyl)-D-valyl)-5-azaspiro[2.4]heptan-6-yl)-1H-imidazol-5-yl)-5,10-dihydrochromeno[5,4,3-cde]chromen-2-yl)-4-isopropyl-1H-imidazol-2-yl)-5-azaspiro[2.4]heptan-5-yl)-3-methyl-1-oxobutan-2-yl)carbamate] gave an EC50 of over 1000 nM. `COC(=O)N[C@H](C(=O)N1CC2(CC2)C[C@H]1c1nc(Cl)c(-c2cc3c4c(c2)OCc2cc(-c5[nH]c([C@@H]6CC7(CC7)CN6C(=O)[C@@H](NC(=O)OC)C(C)(C)C)nc5C(C)C)cc(c2-4)OC3)[nH]1)C(C)(C)C` [Compound 82, methyl ((S)-1-((S)-6-(5-(7-(4-chloro-2-((S)-5-((S)-2-((methoxycarbonyl)amino)-3,3-dimethylbutanoyl)-5-azaspiro[2.4]heptan-6-yl)-1H-imidazol-5-yl)-5,10-dihydrochromeno[5,4,3-cde]chromen-2-yl)-4-isopropyl-1H-imidazol-2-yl)-5-azaspiro[2.4]heptan-5-yl)-3,3-dimethyl-1-oxobutan-2-yl)carbamate] was tested, and the EC50 was 2.6 nM.
